In data set [1] the test system is ovalbumin sensitised Brown Norway rat eosinophilia model. The experiment in a line: Ovalbumin sensitised Brown Norway rat eosinophilia model. Conditions: single 30 μg intra-tracheal dose, suspension in saline, 30 min prior to ovalbumin challenge. The class given is in vivo. The protocol: Pharmacological activity in vivo was assessed in an ovalbumin sensitised Brown Norway rat eosinophilia model. This model is designed to mimic allergen induced lung eosinophilia, a major component of lung inflammation in asthma.

Data set [2] concerns rat model of thymus involution. Briefly: Rat model of thymus involution. Type of data set: in vivo. Conditions: 3 daily IT doses of 100 μg.
The nature of data set [3]: Pharmacokinetics after intra-tracheal dry powder dosing in the pig. Type of data set: in vivo. Conditions: for AUC (0-inf): compound (I) AUC calculated with IV plasma half-life. As to the method: Serial blood samples were taken for up to 8 h following dosing.
The nature of data set [4]: Pharmacokinetics after intravenous and oral dosing in rats. The note with it: rat, IV 0.1 mg/kg.

Molecules are shown by their SMILES.

What is called Cmax is the peak of the concentration-time curve. Take `CCC(=O)O[C@]1(C(=O)SCF)[C@H](C)C[C@H]2[C@@H]3C[C@H](F)C4=CC(=O)C=C[C@]4(C)[C@@]3(F)[C@@H](O)C[C@@]21C` [Fluticasone propionate, 6α, 9α-Difluoro-17α-(1-oxopropoxy)-11β-hydroxy-16α-methyl-3-oxo-androsta-1,4-diene-17β-carbothioic acid S-fluoromethyl ester, reference compound]: the “inhibition of lung eosinophilia” value in data set [1] is 41%. In addition, the “reduction of thymus weight” value in data set [2] is reported as 78%. In addition, the Cmax turned out to be 0.277 ng/mL in data set [3] (Pig 1, 1 mg intra-tracheal dry powder blend in lactose) and 0.218 ng/mL in data set [3] (Pig 2, 1 mg intra-tracheal dry powder blend in lactose). The “AUC (0-inf)” value in data set [3] (Pig 1, 1 mg intra-tracheal dry powder) is 0.455 ng·h/mL; in data set [3] (Pig 2, 1 mg intra-tracheal dry powder) it was 0.495 ng·h/mL. Also, in data set [3] (anaesthetised pigs, 1 mg intra-tracheal, LLOQ 10 pg/mL compound (I), 20 pg/mL fluticasone propionate), the “time after dosing up to which quantifiable in plasma” value was “up to 8 hours”. Further, the plasma clearance in data set [4] was found to be 45.2 mL/min/kg.

The values above are taken from US20050130947A1, “Formulations for inhalation” (priority 2002, published 2005).
